What was measured:
[1] = system: anti-Porphyomonas gingivalis fimbria antibodies contained in sera of patients with periodontal disease; assay: Assay of the specific antibody in serum using plates coated with peptide-modified BSA (ELISA); format: binding, human; conditions: average absorbance (405 nm) of 3 specimens, serum diluted 100 times
Method: One mg of each peptide synthesized in Example 2 was dissolved in 1 ml of 0.1 M phosphate buffered saline (PBS, pH 6.0), 5 mg of sulfated SMCC (made by Pierce Co.) was added, and the mixture was incubated at 30° C. for 30 minutes to conduct maleimidization, and then subjected to Sephadex G-10 column chromatography, and the first eluate fraction was collected. 7 mg of bovine serum albumin (BSA: made by Wako Pure Chemical Industries, Ltd.) was dissolved in 1 ml of 0.1 M phosphate buffer (pH 6.0), 10 mM EDTA, the solution was mixed with the above maleimidized peptide, and the mixture was subjected to reaction at 30° C. for 1 hour. The resultant peptide-modified BSA was subjected to Sephadex G-50 column chromatography, and the first eluate fraction was collected as a plate-preparing antigen solution.
Then, six kind of peptides were synthesized after the process of Example 2, and a plate-preparing antigen solution was similarly prepared as a control.
Each of the resultant antigen solutions was diluted with 0.1 M carbonate buffer (pH 9.6), 150 mM NaCl to give 100 ml of a solution. 10 μl/well of the solution was put in a polystyrene-made microtiter plate (Immunoplate II; maxisorp type; made by Nunc Co.) and left alone at 4° C. overnight, and washing was conducted three times each with 200 μl/well of PBS, using a microtiter automatic washer (hereafter abbreviated as washer; made by Bio-Rad Laboratories). 250 μl/well of PBS containing 0.1% gelatin (made by Nitta Gelatin Co., Ltd.) was added and the mixture was allowed to stand at 4° C. overnight to block the plate. The blocking solution was removed by absorption, and the plate was dried by a vacuum dryer, put in an aluminum bag, and after sealing the bag, kept at 4° C. for the following assay.
Sera of patients of periodontal disease (n=3) and normal subjects (n=3) were used as samples, and each serum was diluted 100 times with PBS containing 10% bovine serum. 100 μl portions of these dilutions were added to the plates coated with various antigens, respectively, and incubation was conducted at 37° C. for 1 hour. Each plate was washed three times with 200 μl of PBST using the washer, 100 μl of a commercially available […] (diluted 10^3 times)/0.1% Casein/PBST was added as a secondary antibody, and incubation was conducted again at 37° C. for 1 hour. The plate was washed in the same manner as above, 100 μl of an o-phenylenediamine solution was added, incubation was conducted at 37° C. for 30 minutes, 100 μl of 0.1 N sulfuric acid was added to stop the reaction, and then, absorbance (405 nm) was measured by a microplate reader (made by Bio-Rad Laboratories) using the reaction well of no addition of the specimen as a control. The measures values are average absorbances of 3 specimens each of the patient group of periodontal disease and the normal subject group.

Porphyomonas gingivalis = format: in vivo, guinea pig; conditions: for inhibitory effect against infection with Porphyomonas gingivalis: guinea pig, in words; for Degree of redness Longest length × shortest length / Inhibition rate: with FCA; for Degree of redness Longest length × shortest length: 500 μg/animal, inoculation on the 28th day, 24 hours later; for Inhibition rate: relative to the FIA inoculation group
Method: Each peptide synthesized in Example 2 was administered together with FIA (Freund's incomplete adjuvant) or FCA (Freund's complete adjuvant), as a water-in-oil type emulsifier, into the sole of the right hind leg of a guinea pig in an amount of 500 μg/animal/time. Thereafter, on the 28th day, 200 μl of a suspension of 10^11 cells/ml of the bacterium was intracutaneously inoculated into the right flank of the same guinea pig after the hair at the region was shaved. 24 hours later, the longest length and shortest length of the resultant red coloring were measured, and the product of them was calculated. From the product was calculated the inhibition rate.

[2] = system: fimbrial protein of Porphyomonas gingivalis; assay: Immunization of mice with the peptides: antibody titer in serum or saliva by ELISA; format: in vivo; conditions: A405 value by the ELISA method, with FCA, 4 weeks later
Method: (§1) Each peptide synthesized in Example 2 was dissolved in PBS so as to make the concentration 200 μg/ml, the solution was mixed with the same volume of FCA, and the mixture after emulsification was subcutaneously injected into mice at the back (3 animals per group). 4 weeks later, the antibody titer in the serum or saliva against the peptide was assayed by an ELISA method.
The fimbrial protein of Porphyomonas gingivalis was adsorbed on each well of a 96-well microtiter plate for ELISA, and a dilution of the serum with PBS (1/10^5), a dilution of the saliva with PBS (1/500), or a solution obtained by adding each peptide or the fimbrial protein of Porphyomonas gingivalis is to the dilution of the serum or saliva to cause absorption was put in the well. Reaction was conducted at 37° C. for 1 hour, and then assay was conducted by a usual ELISA method.

[3] = Immunization of mice with the peptides: body weight; format: in vivo; conditions: mice immunized with FCA emulsion, 3 animals per group
Method: as §1

[4] = system: Porphyomonas gingivalis strain 381; assay: Inhibitory test of Porphyomonas gingivalis infection in Golden hamster with vaccine: resorption of alveolar bone; format: in vivo, Golden hamsters; conditions: for degree of resorption of the alveolar bone: in words; for Absorbance of alveolar bone (average): vaccine of Example 3, induction with Porphyomonas gingivalis strain 381, 80 days
Excerpt: The effects of vaccine on Peptide 1 and Peptide 7 selected from the results of Test example 1, Test example 2, Test example 3, Test example 4 and Test example 5 were examined according to the following method using degree of resorption of alveolar bone and antibody titer as measures, using the vaccine described in Example 3.
(§2) 3-week-old Golden hamsters (one group consisting of 6 animals, 5 groups in total, 1 Porphyomonas gingivalis strain 381 fimbria immunity induction group, 2 Peptide 1 immunity induction group, 3 Peptide 7 immunity induction group, 4 Nonimmunity induction group, 5 Nonimmunity noninduction group) were used.
(§3) Each of the vaccines of the invention was subcutaneously administered at the oral cavity in amounts of 0.2 ml portions on the third week and the fourth week after the birth, and 0.4 ml on the fifth week.
(§4) Induction of periodontal disease was conducted by culturing Porphyomonas gingivalis strain 381 in GAM broth at 37° C. for 20 hours, collecting the cells by centrifugation, suspending the cells in phisiological saline so that the cell concentration could be 10^9 cells/ml, administering 0.2 ml portions of the suspension into the oral cavity of the Golden hamsters for 7 days starting from the sixth week after the birth, and thereafter, administering the suspension once a week.
After the start of the cell administration, the animals were allowed to freely ingest Diet 2000 (made by Funabashi Nojo) as a dental caries-inducing feed and water.
(§5) After the Golden hamsters were fed for 80 days, 1 ml/kg portions of 0.5% pilocarpine hydrochloride were intraperitoneally administered, and saliva was taken from them. Thereafter, blood was taken from the abdominal aorta of each animal, and serum was obtained therefrom. Further, a bone preparation from each hamster was produced by amputating the head, heat treating the head using an autoclave, removing the muscle part, and washing with water and drying the remaining matter.
The bone preparation was assayed for degree of resorption of the alveolar bone of a molar according to the method^f) of Tsukiyama et al. (Koku Eisei Kaishi (Jornal of Hygiene of Oral Cavity) 28, No. 3, 149, 1978).
f) The bone preparation was stained with 20% silver nitrate solution for 5 minutes, and after water washing and drying, the distance from the enamel-cement junction to the alveolar bone edge was measured by a stereoscopic microscope (magnification 15-fold).

the peptide = assay: Inhibitory test of Porphyomonas gingivalis infection in Golden hamster with vaccine: antibody titer in serum and saliva; format: in vivo, Golden hamsters; conditions: for Antibody titer Saliva (1/500) / Antibody titer Serum (1/10^5): A405 value by the ELISA method; for antibody titer in the sera and saliva: in words
Method: as §2, §3, §4, §5
The saliva and serum were assayed for antibody titer against the peptide.

[5] = Inhibitory test of Porphyomonas gingivalis infection in Golden hamster with vaccine: body weight; format: in vivo, Golden hamsters; conditions: vaccine of Example 3, subcutaneous at the oral cavity, fed for 80 days
Method: as §2, §3, §5

Row | Substance | Antibody titer, Normal subject group [1] | Antibody titer, Patient group with peridontal disease [1] | inhibitory effect against infection with Porphyomonas gingivalis (Porphyomonas gingivalis) | Degree of redness Longest length × shortest length (Porphyomonas gingivalis) | Inhibition rate (Porphyomonas gingivalis) | Antibody titer Saliva (1/500) After absorption [2] | Antibody titer Saliva (1/500) Before absorption [2] | Antibody titer Serum (1/10^5) After absorption [2] | Antibody titer Serum (1/10^5) Before absorption [2] | Body weight (Average g) [3] | degree of resorption of the alveolar bone [4] | Absorbance of alveolar bone (average) [4] | Antibody titer Saliva (1/500) (the peptide) | Antibody titer Serum (1/10^5) (the peptide) | antibody titer in the sera and saliva (the peptide) | Body weight (at the time of production of bone preparation) (average g) [5]
1 | Peptide 1: synthetic peptide, epitope of the 41 kD fimbrial subunit protein of Porphyomonas gingivalis; sequence in Table 1, not shown (ENATKVEDIK) | 0.145 | 1.016 | strong inhibitory effect | 660 mm^2 | 66.1% | 0.11 | 0.61 | 0.19 | 0.62 | 25 g | inhibition of absoption of the alveolar bone | 48 | 0.62 | 0.65 | increse of antibody titer | 124 g
2 | Peptide 7: synthetic peptide, epitope of the 41 kD fimbrial subunit protein of Porphyomonas gingivalis; sequence in Table 1, not shown (GFYVLENDYS) | 0.226 | 1.224 | strong inhibitory effect | 240 mm^2 | 87.7% | 0.15 | 0.69 | 0.14 | 0.67 | 23 g | inhibition of absoption of the alveolar bone | 41 | 0.79 | 0.71 | increse of antibody titer | 123 g

From patent publication US6160087A, “Peptides having an amino acid sequence from the fimbrial protein of porphyromonas gingivalis and their uses” (priority 1993, dated 2000)
